In patent publication US20220387429A1, “USE OF IMIDAZOPYRIMIDINE OR IMIDAZOTRIAZINE COMPOUND FOR PREVENTION, ALLEVIATION, OR TREATMENT OF DEVELOPMENTAL DISABILITY” (SK BIOPHARMACEUTICALS CO., LTD., priority 2019, published 2022):

What was measured:
[1] = system: Fmr1 gene knockout mouse model; assay: Marble burying test; type: in vivo; details: Fmr1 gene knockout mice; 2 mg/kg intraperitoneally twice a day for 6 weeks; versus vehicle-administered knockout group
Excerpt: (§1) An Fmr1 gene knockout mouse model was used as an animal model of fragile X syndrome. This model lacks FMRP protein due to disruption of the Fmr1 gene. Typical phenotypes of this mouse model include audiogenic seizure, hyperlocomotor activity, cognitive deficit, concentration deficit disorder, and the like.
Male Fmr1 C57BL/6J knock-out mice derived from the early group imported from Jackson Laboratories were used in the experiments. The experimental animals were raised in a light-controlled environment (illuminated for 12 hours/nonilluminated for 12 hours) and maintained at a temperature of 21° C.±2° C. and a relative humidity of about 55%±5%. Food and water were ad libitum fed. An anticonvulsant efficacy experiment on audiogenic seizure, a contextual fear conditioning experiment, an open field test, and a marble burying test in the Fmr1 gene knockout mouse model was performed by Fragile X Syndrome Drug Validation Initiative (FRAXA-DVI). […]
After the vehicle or test compound was administered intraperitoneally at a dose of 2 mg/kg twice a day for 6 weeks, a hippocampal function-dependent marble burying test was performed. […] The mouse was placed and left for 30 minutes, then the number of marbles buried by the mouse was counted.
(§2) After data analysis by ANOVA, the effect was defined as significant when p<0.05. All results were expressed as mean±SEM.

[2] = system: Fmr1 gene knockout mouse model; assay: Open field test; type: in vivo; details: Fmr1 gene knockout mice; 2 mg/kg intraperitoneally twice a day for 6 weeks; versus wild-type mice, P value of 0.0001 or less
Excerpt: as §1
Male Fmr1 C57BL/6J knock-out mice derived from the early group imported from Jackson Laboratories were used in the experiments. The experimental animals were raised in a light-controlled environment (illuminated for 12 hours/nonilluminated for 12 hours) and maintained at a temperature of 21° C.±2° C. and a relative humidity of about 55%±5%. Food and water were ad libitum fed. […]
After the vehicle or test compound was administered intraperitoneally at a dose of 2 mg/kg twice a day for 6 weeks, an open field test was performed to observe the efficacy behavior of mice who fearlessly stepped out to the center of the open field. […] The number of times the mouse crossed the center of the open field was measured by the breakage of the horizontal beam due to the mouse's movement. […]
as §2

Wild-type mice = assay: Audiogenic seizure test in wild-type mice; type: in vivo, mouse; details: 2 mg/kg intraperitoneally twice a day for 6 weeks
Procedure: [The source words this procedure for another variant and reports this variant under the same test.] (§3) Male Fmr1 C57BL/6J knock-out mice derived from the early group imported from Jackson Laboratories were used in the experiments. The experimental animals were raised in a light-controlled environment (illuminated for 12 hours/nonilluminated for 12 hours) and maintained at a temperature of 21° C.±2° C. and a relative humidity of about 55%±5%. Food and water were ad libitum fed. An anticonvulsant efficacy experiment on audiogenic seizure, a contextual fear conditioning experiment, an open field test, and a marble burying test in the Fmr1 gene knockout mouse model was performed by Fragile X Syndrome Drug Validation Initiative (FRAXA-DVI). The mice were randomly divided into groups and the test was performed under illumination.
(§4) The test compound was dissolved in 10% DMSO (dimethylsulfoxide)+30% PEG 300 in DW (distilled water), and administered intraperitoneally at a dose of 2 mg/kg twice a day for 6 weeks. To a control group, vehicle (10% DMSO (dimethylsulfoxide)+30% PEG 300 in DW (distilled water)) was administered.
(§5) Ten mice per group were used.
(§6) After the vehicle or test compound was administered intraperitoneally at a dose of 2 mg/kg twice a day for 6 weeks, the mice were placed in a chamber and exposed to an alarm. The response of the mice during the test was evaluated numerically by the following criteria according to the intensity of seizure, and the survival rate was also observed.
(§7) 1: Wild running and jumping

[3] = system: Fmr1 gene knockout mouse model; assay: Audiogenic seizure test, anticonvulsant efficacy; type: in vivo; details: Fmr1 gene knockout mice, 2 mg/kg intraperitoneally twice a day for 6 weeks
Excerpt: as §1, §3, §4, §5, §6, §7

[4] = system: Fmr1 gene knockout mouse model; assay: Contextual fear conditioning experiment; type: in vivo; details: Fmr1 gene knockout mice; 2 mg/kg intraperitoneally twice a day for 6 weeks; versus vehicle-administered knockout group
Excerpt: as §1, §3
The test compound was dissolved in 10% DMSO (dimethylsulfoxide)+30% PEG 300 in DW (distilled water), and administered intraperitoneally at a dose of 2 mg/kg twice a day for 6 weeks. […]
as §2

Q: Which “Number of marbles buried (FIG. 3)” value [1] does the source give for `Fc1ccc(-c2cnc3nc(COc4ccccn4)cn3c2)c(C(F)(F)F)c1` [test compound, 6-[4-fluoro-2-(trifluoromethyl)phenyl]-2-(2-pyridyloxymethyl)imidazo[1,2-a]pyrimidine] here?
A: increased compared to that in the vehicle-administered group of Fmr1 gene knockout mice

Q: What about the “Number of times the mouse crossed the center (open field, FIG. 2)” value [2] of the same compound?
A: significant increase in movement compared to the wild-type mice

Q: And the Audiogenic seizure phenotype (Wild-type mice)?
A: no mice showed audiogenic seizure phenotype

Q: And the “Seizures of 3 or more points” value (Wild-type mice; mice affected/mice in group)?
A: 0/10

Q: And the Wild running (Wild-type mice; mice affected/mice in group)?
A: 0/10

Q: And the “Vulnerability to audiogenic seizure” value (Wild-type mice; proportion of wild running mice)?
A: 0%

Q: What about the Survival rate (Wild-type mice; survivors/mice in group) of the same compound?
A: 10/10

Q: And the “Seizures of 3 or more points” value ([3]; mice affected/mice in group)?
A: 5/10

Q: What about the Wild running ([3]; mice affected/mice in group) of the same compound?
A: 6/10

Q: And the “Vulnerability to audiogenic seizure” value ([3]; proportion of wild running mice, vehicle group 90%, 2 mg/kg)?
A: 60%

Q: And the Survival rate ([3]; survivors/mice in group)?
A: 5/10

Q: What about the “Freezing behavior (contextual fear conditioning, FIG. 1)” value [4] of the same compound?
A: significantly increased freezing behavior compared to the vehicle-administered group
